What was measured:
[1] = tested on: Escherichia coli ATCC 25922; test: Colony-forming unit (CFU) assay of antibacterial activity with NaCl dependence; format: cell-based; conditions: for antibacterial activity, inhibition by NaCl: 50 mM NaCl; for antibacterial activity at 200 mM NaCl: p<0.001 versus hBD3 in the same conditions; for antibacterial activity compared to wild-type hBD3: peptide 12.5 µM, p<0.01; for antibacterial activity at 200 mM NaCl / antibacterial activity compared to wild-type hBD3: 200 mM NaCl
Method: (§1) Colony-forming unit (CFU) assay of the antibacterial activity of the peptides against P.aeruginosa ATCC (American Type Culture Collection, Manassas, VA, USA) 27853, Enterococcus faecalis ATCC 29212 and Escherichia coli ATCC 25922 was performed. The strains were grown in aerobic conditions in tryptic soy broth (Difco Laboratories, Detroit, MI, USA) at 37°C. Cells from exponential-phase cultures were centrifuged, washed and suspended to a density of 1 x 10^5 CFU/mL in sterile 10 mM potassium phosphate buffer, pH 7.4, and incubated in the presence of the peptides. The incubation time was 2 h at 37°C. […] For salt dependence assay, NaCl in a range of concentrations potentially present in the airway surface fluid of normal subjects and CF patients (33), i.e., 0, 50, 100 and 200 mM NaCl, were included in the incubation buffer. The cells were then diluted serially in the same buffer, spread on tryptone-yeast (Difco Laboratories) plates and the colonies were counted after 18 h at 37°C. Each assay was performed in triplicate. Bactericidal activity (mean and SD of three assays) is expressed as the ratio between colonies counted and the number of colonies on a control plate.

[2] = tested on: Enterococcus faecalis ATCC 29212; test: as above; format: cell-based; conditions: for antibacterial activity, inhibition by NaCl: 50 mM NaCl; for antibacterial activity at 200 mM NaCl: p<0.001 versus hBD3 in the same conditions; for antibacterial activity compared to wild-type hBD3: peptide 12.5 µM, p<0.01; for antibacterial activity at 200 mM NaCl / antibacterial activity compared to wild-type hBD3: 200 mM NaCl
Method: as §1

P.aeruginosa ATCC 27853 = test: as above; format: cell-based; conditions: for antibacterial activity, inhibition by NaCl: 50 mM NaCl; for antibacterial activity at 200 mM NaCl: p<0.001 versus hBD3 in the same conditions; for antibacterial activity at 200 mM NaCl / antibacterial activity compared to wild-type hBD3: 200 mM NaCl
Method: as §1

neutrophils = test: Chemotaxis assay (leukocyte migration, calcein fluorescence); format: cell-based, human; conditions: for chemotactic activity compared to wild-type hBD1: peptide 1.25 µM
Method: (§2) Preparation of leukocytes-Monocytes and neutrophils were isolated as described in the StemSep Cell Technical Manual (Stem Cell Technologies, Vancouver, Canada). Briefly, to obtain neutrophils, buffy coats were diluted 1:20 in NH4Cl supplemented with 2 mM EDTA and incubated on ice for 20 min. Cell suspensions were centrifuged for 10 min at 600 X g at room temperature with the brake off and washed three times with phosphate buffered saline (PBS) supplemented with 2% foetal bovine serum and 2 mM EDTA. Cell viability was assessed by analysis of light scatter properties, and cell count was performed using a logical gate strategy based on Trucount tubes (Becton-Dickinson, San Jose, CA, USA). Neutrophils were purified from lysed buffy coats using StemSep negative selection system. To this purpose, 100x10^6 mononuclear cells from lysed buffy coats were incubated with 100 µL of custom antibody cocktail for human granulocytes enrichment (Stem Cell Technologies) for 45 min on ice. In addition, cell suspensions were incubated with 60 µL of magnetic colloid for 30 minutes on ice. Finally, the samples were run through a 0.3-inch column matrix in a negative selection system in which the unwanted cells were immunomagnetically labelled and bound to the magnetic column. Neutrophils, after the separation, were collected in the column flowthrough without antibody bound to their surface. In order to obtain monocytes, human buffy coats were layered over a Ficoll-Paque density gradient and spun at 600 X g for 30 min with the brake off. The mononuclear cell-rich fractions were washed three times with PBS supplemented with 2% foetal bovine serum (FBS) and 2 mM EDTA. Cell viability was assessed by analysis of light scatter properties, and cell count was performed using a logical gate strategy based on Trucount tubes (Becton-Dickinson). A custom antibody cocktail for human monocyte enrichment (Stem Cells Technologies) was used for immunomagnetic negative selection of monocytes. Mononuclear cells were incubated as above described for neutrophils. Both neutrophils and monocytes were resuspended in 5.0 mL of RPMI-1640 (Sigma-Aldrich, St Louis, MO, USA) without phenol red containing 10% heat-treated FBS. Calcein AM (Molecular Probes, Eugene, OR, USA) was added to the cell suspensions (5.0 mL) at a concentration of 5 µg/mL and the cells were incubated for 30 min at 37°C. Cell suspensions were washed twice with PBS and then resuspended in RPMI-FBS to the desired concentration.
(§3) Measurement of leukocytes migration-The chemotaxis assay of monocytes and neutrophils (90-95% of purity) was performed in 96-well disposable chemotaxis chambers (Neuroprobe, Gaithersburg, MD, USA) using polyvinyl-pyrrolidone-free polycarbonate membranes with an […] pore size for monocytes and with a […] pore size for neutrophils. Chemotaxis was measured by fluorescence detection, using the calcein fluorescence signal. The fluorescence was read in a microplate fluorescence reader (Victor 3 1420 Multilabel Counter, Perkin Elmer) with excitation/emission wave-length settings of 485/530 nm. We calculated the migration index as the ratio between the sample mean fluorescence (after subtraction of the negative control mean fluorescence)/positive control mean fluorescence. Each assay was performed in quadruplicate.

monocytes = test: as above; format: cell-based, human; conditions: for chemotactic activity compared to wild-type hBD1: peptide 1.25 µM
Method: as §2, §3

HSV-1 = HSV-1 infectivity plaque assay on Vero cell monolayers (co-exposure, virus pre-treatment, cell pre-exposure); format: cell-based; conditions: for % of infectivity: mean and SD of 3 replicates; for inhibition of HSV infectivity: peptide 50 µM, reduced form
Method: Vero cells were grown in Dulbecco's modified Eagle's medium (DMEM) supplemented with 10% foetal calf serum. HSV-1 carrying a IacZ gene driven by the cytomegalovirus (CMV) IE-1 promoter to express beta-galactosidase was propagated as described (33). Peptides were dissolved in DMEM with serum and used at different concentrations. All experiments were conducted in parallel with scrambled peptides and no-peptide controls. […] Non-penetrated viruses were inactivated by citrate buffer at pH 3.0 after the 45 min incubation with cells at 37°C. The cells were then incubated for 48 h at 37°C in DMEM supplemented with carboxymethylcellulose (CMC). Monolayers were fixed, stained with 5-bromo-4-chloro-3-indolyl-beta-D-galactopyranoside (X-gal) and plaque numbers were scored. Experiments were performed in triplicate and the percentage of inhibition was calculated with respect to no-peptide control experiments. ii) For "virus pre-treatment" experiments, approximately 2 x 10^4 plaque forming units (PFU) of HSV-1 were incubated in the presence of 20 µM of peptides for 45 min at 37°C, then titrated on Vero cell monolayers. iii) For "cell pre-exposure" experiments, Vero cells were incubated with 20 µM of peptides for 30 min at 4°C. Peptides were removed, and cells were washed with phosphate-buffered saline before being infected with serial dilutions of HSV-1 and incubated for 45 min at 37°C.
Monolayers were exposed to different concentrations (10, 50, 100, 250 and 500 µM) of each peptide for 24 h, and cell viability was evaluated with the LDH assay. There was no significant difference between the viability of cells exposed to the peptides and that of cells exposed to control (data not shown). Thus, we evaluated the antiviral activity of wild type peptides and their analogs in: co-exposure experiments (cell + virus + peptide at zero time); virus pre-treatment (virus + peptide incubation before cell infection); and cell pre-exposure (cell + peptide incubation before virus infection). This would allow to evaluate if, and in which phase, the peptides could inhibit the virus infectivity.
For co-exposure experiments, we incubated the peptides on the monolayers of Vero cells together with the virus inoculum for 45 min before low pH treatment. The reduced form of wild-type hBD1 and hBD3 and analogs 1C, 1 N, 3C, 3N were used in all subsequent experiments. […] No control (peptide excluded) inhibited HSV-1 infectivity under similar experimental conditions.

[3] = cell pre-exposure, peptide 20 µM
[4] = virus pre-incubation, peptide 20 µM
[5] = 0 to 200 mM NaCl, pattern as against P. aeruginosa

| Sequence | antibacterial activity, inhibition by NaCl [1] | antibacterial activity, inhibition by NaCl [2] | antibacterial activity, inhibition by NaCl (P.aeruginosa ATCC 27853) | chemotactic activity compared to wild-type hBD1 (neutrophils) | antibacterial activity at 200 mM NaCl [1] | antibacterial activity at 200 mM NaCl [2] | antibacterial activity at 200 mM NaCl (P.aeruginosa ATCC 27853) | chemotactic activity compared to wild-type hBD1 (monocytes) | % of infectivity (HSV-1; [3]) [%] | % of infectivity (HSV-1; co-exposure, peptide 20 µM) [%] | % of infectivity (HSV-1; [4]) [%] | further results |
| --- | --- | --- | --- | --- | --- | --- | --- | --- | --- | --- | --- | --- |
| DHYNCVSSGGQCLYSACLPKEEQIGKCYRGKAKCCK [1I] | inhibited already by 50 mM NaCl | inhibited already by 50 mM NaCl | inhibited already by 50 mM NaCl | significantly lower activity |  |  |  |  |  |  |  |  |
| DHYNCVSSGGQCLYSACLPKEEQIGKCYRGKRKCCRRKK [1CI] |  |  |  | significantly lower activity | displayed antibacterial activity | displayed antibacterial activity | displayed antibacterial activity | significantly lower |  |  |  |  |
| DHYNCVSSGGQCLYSACPIFTKIQGTCYRGKAKCCK [hBD1 wt, wild type human beta-defensin 1, reference compound] | inhibited already by 50 mM NaCl | inhibited already by 50 mM NaCl | inhibited already by 50 mM NaCl |  |  |  |  |  | 71.3±1.2 | 74.7±2.4 | 65.3±3.8 | chemotactic activity, effect of NaCl (neutrophils; NaCl concentrations up to 200 mM): did not significantly affect; chemotactic activity, effect of NaCl (monocytes; 200 mM NaCl): comparable to that obtained at 100 mM NaCl; chemotactic activity, effect of NaCl (monocytes; NaCl between 100 and 150 mM, p<0.001): significantly increased |
| DHYNCVSSGGQCLYSACPIFTKIQGTCYRGKRKCCRRKK [1C] |  |  |  | comparable to that of hBD1 |  |  |  | significantly lower | 24.1±2.2 | 57.6±1.8 | 40.3±2.6 | antiviral activity in words (HSV-1; cell pre-exposure treatment, peptide 20 µM): active; inhibition of HSV infectivity (HSV-1; co-exposure): 70%; antibacterial activity compared to wild-type hBD3, pattern over NaCl concentrations [1, 5]: same pattern of activity; antibacterial activity compared to wild-type hBD3, pattern over NaCl concentrations [2, 5]: same pattern of activity; antibacterial activity compared to wild-type hBD3 (P.aeruginosa ATCC 27853; peptide 2.5 and 12.5 µM, p<0.001): significantly higher |
| GIINTLDHYNCVSSGGQCLYSACPIFTKIQGTCYRGKAKCCK [1N] | inhibited already by 50 mM NaCl | inhibited already by 50 mM NaCl | inhibited already by 50 mM NaCl | significantly lower activity |  |  |  | comparable to that of wild-type hBD1 | 64.8±3.5 | 73.2±4.2 | 75.6±3.5 | antibacterial activity compared to wild-type hBD3 [1]: significantly higher; antibacterial activity compared to wild-type hBD3 [2]: significantly higher; antibacterial activity compared to wild-type hBD3 (P.aeruginosa ATCC 27853; peptide 12.5 µM, p<0.01): significantly higher |
| GIINTLQKYYCRVRGGRCAVLSCLPKEEQIGKCSTRGAKCCK [3C] |  |  |  |  |  |  |  |  | 50.3±3.4 | 61.7±3.4 | 32.4±4.3 |  |
| GIINTLQKYYCRVRGGRCAVLSCPIFTKIQGTCSTRGAKCCK [3CI] | inhibited already by 50 mM NaCl | inhibited already by 50 mM NaCl | inhibited already by 50 mM NaCl | significantly higher |  |  |  | significantly lower |  |  |  | antibacterial activity compared to wild-type hBD3 [1]: significantly higher; antibacterial activity compared to wild-type hBD3 [2]: significantly higher; antibacterial activity compared to wild-type hBD3 (P.aeruginosa ATCC 27853; peptide 12.5 µM, p<0.01): significantly higher |
| GIINTLQKYYCRVRGGRCAVLSCPIFTKIQGTCSTRGRKCCRRKK [3I] |  |  |  |  | displayed antibacterial activity | displayed antibacterial activity | displayed antibacterial activity | comparable to that of wild-type hBD1 |  |  |  |  |
| QKYYCRVRGGRCAVLSCLPKEEQIGKCSTRGRKCCRRKK [3N] |  |  |  | comparable to that of hBD1 | displayed antibacterial activity | displayed antibacterial activity | displayed antibacterial activity |  | 13.4±4.2 | 20.4±2.4 | 8.5±2.1 | inhibition of HSV infectivity (HSV-1; co-exposure): 90% |
